Measurements published in PMC6874683, “Pyrrothiogatain acts as an inhibitor of GATA family proteins and inhibits Th2 cell differentiation in vitro” (Scientific Reports, 2019).
“Also recorded” adds a separate entry of the source.

Columns and labels:
[1] = system: GATA3-dependent IL-5 promoter activation; experiment: IL-5 promoter luciferase reporter assay in HEK293T cells; assay type: cell-based; conditions: PMA 30 ng/mL, 0 to 30 µM
Protocol: The IL-5 promoter activity was determined as previously described[22],[23]. In brief, HEK293T cells were co-transfected with a firefly luciferase reporter (pGL3-IL-5 promoter), a renilla luciferase plasmid, and an expression vector (pcDNA3.1) using TransIT-LTI Regent (Cat#MIR2304, Mirus). Six hours after transfection, cells were treated with pyrrothiogatain (0 to 30 µM) and PMA (30 ng/mL) for 18 hours. The luciferase activity was measured using a Dual-Luciferase Reporter Assay System (cat#E1910, Promega).

Th2 cell differentiation [2] = experiment: Intracellular cytokine staining, naive CD4+ T cells under Th2 conditions; assay type: cell-based, mouse; conditions: 30 and 80 µM, 5 days
Protocol: (§1) C57BL/6 mice were purchased from Clea (Clea Japan, Inc., Tokyo, Japan). Total CD4^+ T cells isolated from mouse spleen were prepared using a FITC anti-mouse CD4 antibody (Cat#100510, RM4–5, BioLegend) and anti-FITC-microbeads (Cat#130-097-050, Miltenyi Biotec). Naive CD4^+ T cells (CD44^low, CD62L^high) were prepared using a MojoSort Mouse CD4 T cell Isolation Kit (Cat#480033), BioLegend). Biotinylated anti-CD44 (Cat#103004, IM7) and anti-CD25 antibodies (Cat#102004, PC61) were purchased from BioLegend. CD4^+ T cells (7.5 × 10^5) were stimulated using immobilized anti-TCR-β mAb (3 µg/mL, H57–597, BioLegend) plus an anti-CD28 mAb (1.0 µg/mL, cat#40–0281, TONBO Biosciences) for 2 days, and then, the cells were further expanded under similar conditions for an additional 3 days. IL-2 conditions: IL-2 (10 ng/mL, Pepro Tech); Th2 conditions: IL-2 (10 ng/mL, Pepro Tech), IL-4 (1 ng/mL, Pepro Tech), and anti-IFN-γ mAb (2.5 µg/mL, cat#40–731, TONBO Biosciences). […]
(§2) The in vitro differentiated CD4^+ T cells were stimulated using an immobilized anti-TCR-β mAb (3 µg/ml, H57–597, BioLegend) for 6 h in the presence of monensin (2 µM). […] Flow cytometry was performed using a Gallios Flow Cytometer instrument (Beckman Coulter) and a FACS Caliber instrument (BD Biosciences) and the results were analysed using the FlowJo software program (Tree Star, Ashland, OR, USA).

GATA3-SOX4 interaction = biological target: T1, GATA3-SOX4 interaction (Homo sapiens, UniProt P23771); experiment: AlphaScreen binding assay of GATA3 and SOX4; conditions: pyrrothiogatain 0 to 100 µM
T1 construct: we synthesized the recombinant full-length GATA3 protein with an N-terminal FLAG tag using the wheat cell-free system; made in house; host or cells: wheat cell-free protein synthesis system (WEPRO1240 kit), BirA added for biotinylation
T1 sequence (P23771 whole entry): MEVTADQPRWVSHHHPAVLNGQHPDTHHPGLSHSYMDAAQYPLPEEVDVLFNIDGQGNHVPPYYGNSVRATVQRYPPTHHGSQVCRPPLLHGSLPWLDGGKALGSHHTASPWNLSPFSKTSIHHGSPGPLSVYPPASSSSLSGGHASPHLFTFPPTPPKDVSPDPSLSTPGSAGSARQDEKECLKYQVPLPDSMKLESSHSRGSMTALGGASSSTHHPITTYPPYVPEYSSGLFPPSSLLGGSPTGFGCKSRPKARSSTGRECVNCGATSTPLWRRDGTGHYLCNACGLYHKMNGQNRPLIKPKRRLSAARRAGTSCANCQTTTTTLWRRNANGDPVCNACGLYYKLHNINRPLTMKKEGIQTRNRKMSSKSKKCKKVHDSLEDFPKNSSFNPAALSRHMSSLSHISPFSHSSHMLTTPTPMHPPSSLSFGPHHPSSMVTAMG
Protocol: The GATA3 protein has been reported to directly interact with SOX4[22]. We next investigated whether pyrrothiogatain interrupted the interaction between GATA3 and SOX4. […] Interaction between biotin-labelled SOX4 and FLAG-GATA3 was analysed by the AlphaScreen system (Fig. 4B).
Figure 4 Pyrrothiogatain inhibits the GATA3–SOX4 interaction. (A) Immunoblot analysis of biotin fused recombinant SOX4 (Biotin-SOX4) synthesized by the wheat cell-free system. The whole translational mixture (W) and the supernatant (S) were analysed using an anti-biotin antibody. (B) A schematic diagram of the binding assay to detect the direct binding between GATA3 and SOX4. When FLAG-tagged GATA3 binds with biotin fused SOX4, AlphaScreen beads generate a luminescent signal. (C) The binding assay of GATA3 and SOX4. The luminescence signals were detected by AlphaScreen technology. FLAG-DHFR was used as a control. (D) The inhibition assay of the binding of GATA3 and SOX4 in the presence of various concentrations of pyrrothiogatain (0 to 100 µM). The binding activity was calculated from the AlphaScreen signal. (E) The binding of recombinant GATA3 with SOX4 in the presence of pyrrothiogatain (0 to 100 µM) was assessed by immunoprecipitation assay. […] In (C,D), all data are expressed as individual points of three independent experiments with error bars indicating standard deviation.

Th2 cell differentiation [3] = experiment: Intracellular cytokine staining, total CD4+ T cells under IL-2 conditions; assay type: cell-based, mouse; conditions: 30 µM, five days
Protocol: as §1
as §2, with “USA). […]” for “USA).”

[4] = system: OVA-induced allergic mice; experiment: OVA-induced allergic airway inflammation model; assay type: in vivo, mouse; conditions: 20 mg/kg intraperitoneally every day from day 0 to 6, versus vehicle control
Protocol: C57BL/6 mice at 7 weeks old were immunized intraperitoneally with 100 µg OVA (Cat#A5503, Sigma) in 2 % aluminium hydroxide gel (Cat#vax-alu-250, InvivoGen) on day 0. The mice were challenged intranasally with 100 µg OVA in saline on days 7, 8 and 9. Pyrrothiogatain was administrated intraperitoneally at a concentration of 20 mg/kg in PBS every day from day 0 to 6. The day after the last OVA challenge, BAL fluid cells were subjected to histological examination using the Diff Quick stain (Cat#16920, Sysmex). All animal experiments received approval from the Ehime University Administrative Panel for Animal Care. All animal care was conducted in accordance with the guidelines of Ehime University.

- IC50 (GATA3-SOX4 interaction): 95.2 µM
Structure (SMILES): Cc1ccc(C)n1-c1ccsc1C(=O)O [Pyrrothiogatain, 3-(2,5-dimethyl-1H-pyrrol-1-yl)thiophene-2-carboxylic acid]
- GATA3-dependent transcriptional activation of the IL-5 promoter [1]: significantly suppressed
- Generation of IL-4-, IL-5-, and IL-13-producing Th2 cells (Th2 cell differentiation [2]): repressed
- Generation of IL-4-, IL-5-, and IL-13-producing cells (Th2 cell differentiation [3]): repressed
- Number of Th1 cells producing IFN-γ (Th2 cell differentiation [3]): increased
- Number of inflammatory cells in the bronchoalveolar lavage (BAL) fluid [4]: no significant difference; also recorded: did not significantly decrease
